We go through 5 compounds from the supplement of paper PMC10307832.

In one assay the test system is BEN. In words: relative viability (nuclei count vs DMSO), 5 days (fraction); higher = more cells survive. The conditions noted are these: first compound 2.53 µM. An outline of the steps:
(§1)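 Each reported value is a median over duplicate plates. It expresses relative viability: treated-well nuclei count divided by vehicle-well nuclei count. Lung cancer cell lines in 1536-well plates were dosed by pin tool a day after seeding, alone with one drug or with a fixed anchor-drug dose plus five library-drug doses (not always all listed) in √10 steps, and nuclei were counted after 5 days.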
`Oc1nc(-c2ccc(C(F)(F)F)cc2)nc2c1CSCC2` [XAV939] + O=C(c1cc(Cc2n[nH]c(=O)c3ccccc23)ccc1F)N1CCN(C(=O)C2CC2)CC1 [Olaparib] (partner 8 µM): the relative viability came to 0.845.
On the same count and under the same terms, the value for `Oc1nc(-c2ccc(C(F)(F)F)cc2)nc2c1CSCC2` [XAV939] + CC(=O)c1c(C)c2cnc(Nc3ccc(N4CCNCC4)cn3)nc2n(C2CCCC2)c1=O [Palbociclib] (partner 0.5 µM) was 0.45; that for `C=C1C(=O)O[C@@H](CCCCCCCC)[C@@H]1C(=O)O` [C-75] + CC(=O)c1c(C)c2cnc(Nc3ccc(N4CCNCC4)cn3)nc2n(C2CCCC2)c1=O [Palbociclib] (partner 0.5 µM) was 0.375.
Same read-out and setting: the value for `C=C1C(=O)O[C@@H](CCCCCCCC)[C@@H]1C(=O)O` [C-75] + Nc1ncn([C@H]2C[C@H](O)[C@@H](CO)O2)c(=O)n1 [Decitabine] (partner 2 µM) was 0.738.

Staying with this assay, now noted: first compound 8 µM.
With `C=C1C(=O)O[C@@H](CCCCCCCC)[C@@H]1C(=O)O` [C-75] + CC(=O)c1c(C)c2cnc(Nc3ccc(N4CCNCC4)cn3)nc2n(C2CCCC2)c1=O [Palbociclib] (partner 0.5 µM), the relative viability was 0.452.
Still for that read-out and setting: the same measure for `C=C1C(=O)O[C@@H](CCCCCCCC)[C@@H]1C(=O)O` [C-75] + Nc1ncn([C@H]2C[C@H](O)[C@@H](CO)O2)c(=O)n1 [Decitabine] (partner 2 µM): 0.713.

For the next assay, the system named is HCC-44. Described as above. Particulars: first compound 0.08 µM. An outline of the steps: as §1
In turn, `Oc1nc(-c2ccc(C(F)(F)F)cc2)nc2c1CSCC2` [XAV939] + O=C(CCCCCCC(=O)Nc1ccccc1)NO [Vorinostat] (partner 1 µM) had a relative viability of 0.981.
Same read-out and setting: the same measure for `Oc1nc(-c2ccc(C(F)(F)F)cc2)nc2c1CSCC2` [XAV939] + O=C(c1cc(Cc2n[nH]c(=O)c3ccccc23)ccc1F)N1CCN(C(=O)C2CC2)CC1 [Olaparib] (partner 8 µM): 0.935; for `Oc1nc(-c2ccc(C(F)(F)F)cc2)nc2c1CSCC2` [XAV939] + CC(=O)c1c(C)c2cnc(Nc3ccc(N4CCNCC4)cn3)nc2n(C2CCCC2)c1=O [Palbociclib] (partner 0.5 µM): 0.899.
Same read-out and setting: the value for `C=C1C(=O)O[C@@H](CCCCCCCC)[C@@H]1C(=O)O` [C-75] + CC(=O)c1c(C)c2cnc(Nc3ccc(N4CCNCC4)cn3)nc2n(C2CCCC2)c1=O [Palbociclib] (partner 0.5 µM) was 0.971; that for `C=C1C(=O)O[C@@H](CCCCCCCC)[C@@H]1C(=O)O` [C-75] + Nc1ncn([C@H]2C[C@H](O)[C@@H](CO)O2)c(=O)n1 [Decitabine] (partner 2 µM) was 1.02.

The assay is the same for the next values; noted with them: first compound 0.253 µM.
`Oc1nc(-c2ccc(C(F)(F)F)cc2)nc2c1CSCC2` [XAV939] + O=C(CCCCCCC(=O)Nc1ccccc1)NO [Vorinostat] (partner 1 µM): the relative viability is 0.919.
Still for that read-out and setting: the value for `Oc1nc(-c2ccc(C(F)(F)F)cc2)nc2c1CSCC2` [XAV939] + O=C(c1cc(Cc2n[nH]c(=O)c3ccccc23)ccc1F)N1CCN(C(=O)C2CC2)CC1 [Olaparib] (partner 8 µM) was 0.904.
The same measure, in the same setting: the same measure for `Oc1nc(-c2ccc(C(F)(F)F)cc2)nc2c1CSCC2` [XAV939] + CC(=O)c1c(C)c2cnc(Nc3ccc(N4CCNCC4)cn3)nc2n(C2CCCC2)c1=O [Palbociclib] (partner 0.5 µM): 0.842; for `C=C1C(=O)O[C@@H](CCCCCCCC)[C@@H]1C(=O)O` [C-75] + CC(=O)c1c(C)c2cnc(Nc3ccc(N4CCNCC4)cn3)nc2n(C2CCCC2)c1=O [Palbociclib] (partner 0.5 µM): 1.1.
Regarding `C=C1C(=O)O[C@@H](CCCCCCCC)[C@@H]1C(=O)O` [C-75] + Nc1ncn([C@H]2C[C@H](O)[C@@H](CO)O2)c(=O)n1 [Decitabine] (partner 2 µM), the relative viability came to 0.922.

The same assay, now with this note: first compound 0.8 µM.
For the compound `Oc1nc(-c2ccc(C(F)(F)F)cc2)nc2c1CSCC2` [XAV939] + O=C(CCCCCCC(=O)Nc1ccccc1)NO [Vorinostat] (partner 1 µM), the relative viability is 0.947.
`Oc1nc(-c2ccc(C(F)(F)F)cc2)nc2c1CSCC2` [XAV939] + O=C(c1cc(Cc2n[nH]c(=O)c3ccccc23)ccc1F)N1CCN(C(=O)C2CC2)CC1 [Olaparib] (partner 8 µM) returned a relative viability of 0.958.
The same measure, in the same setting: the value for `Oc1nc(-c2ccc(C(F)(F)F)cc2)nc2c1CSCC2` [XAV939] + CC(=O)c1c(C)c2cnc(Nc3ccc(N4CCNCC4)cn3)nc2n(C2CCCC2)c1=O [Palbociclib] (partner 0.5 µM) was 0.888; that for `C=C1C(=O)O[C@@H](CCCCCCCC)[C@@H]1C(=O)O` [C-75] + CC(=O)c1c(C)c2cnc(Nc3ccc(N4CCNCC4)cn3)nc2n(C2CCCC2)c1=O [Palbociclib] (partner 0.5 µM) was 1.02; that for `C=C1C(=O)O[C@@H](CCCCCCCC)[C@@H]1C(=O)O` [C-75] + Nc1ncn([C@H]2C[C@H](O)[C@@H](CO)O2)c(=O)n1 [Decitabine] (partner 2 µM) was 0.946.

Still in this assay, the particulars now being: first compound 2.53 µM.
On to `Oc1nc(-c2ccc(C(F)(F)F)cc2)nc2c1CSCC2` [XAV939] + O=C(CCCCCCC(=O)Nc1ccccc1)NO [Vorinostat] (partner 1 µM), for which the relative viability stood at 1.04.
Take `Oc1nc(-c2ccc(C(F)(F)F)cc2)nc2c1CSCC2` [XAV939] + O=C(c1cc(Cc2n[nH]c(=O)c3ccccc23)ccc1F)N1CCN(C(=O)C2CC2)CC1 [Olaparib] (partner 8 µM): the relative viability worked out at 0.866.
On the same count and under the same terms, the same measure for `Oc1nc(-c2ccc(C(F)(F)F)cc2)nc2c1CSCC2` [XAV939] + CC(=O)c1c(C)c2cnc(Nc3ccc(N4CCNCC4)cn3)nc2n(C2CCCC2)c1=O [Palbociclib] (partner 0.5 µM): 0.807; for `C=C1C(=O)O[C@@H](CCCCCCCC)[C@@H]1C(=O)O` [C-75] + CC(=O)c1c(C)c2cnc(Nc3ccc(N4CCNCC4)cn3)nc2n(C2CCCC2)c1=O [Palbociclib] (partner 0.5 µM): 0.956.
`C=C1C(=O)O[C@@H](CCCCCCCC)[C@@H]1C(=O)O` [C-75] + Nc1ncn([C@H]2C[C@H](O)[C@@H](CO)O2)c(=O)n1 [Decitabine] (partner 2 µM) returned a relative viability of 0.8.

Staying with this assay, now noted: first compound 8 µM.
Compound `C=C1C(=O)O[C@@H](CCCCCCCC)[C@@H]1C(=O)O` [C-75] + CC(=O)c1c(C)c2cnc(Nc3ccc(N4CCNCC4)cn3)nc2n(C2CCCC2)c1=O [Palbociclib] (partner 0.5 µM) had a relative viability of 0.996.
For `C=C1C(=O)O[C@@H](CCCCCCCC)[C@@H]1C(=O)O` [C-75] + Nc1ncn([C@H]2C[C@H](O)[C@@H](CO)O2)c(=O)n1 [Decitabine] (partner 2 µM), the relative viability came to 0.903.

In the next assay the test system is NCI-H441. Described as above. The conditions noted are these: first compound 0.08 µM. In outline: as §1
For `Oc1nc(-c2ccc(C(F)(F)F)cc2)nc2c1CSCC2` [XAV939] + O=C(CCCCCCC(=O)Nc1ccccc1)NO [Vorinostat] (partner 1 µM), the relative viability amounted to 1.02.
`Oc1nc(-c2ccc(C(F)(F)F)cc2)nc2c1CSCC2` [XAV939] + O=C(c1cc(Cc2n[nH]c(=O)c3ccccc23)ccc1F)N1CCN(C(=O)C2CC2)CC1 [Olaparib] (partner 8 µM) registered a relative viability of 0.68.
